Tests used:
human preadipocytes = test: Human preadipocyte adipogenesis, oil-red staining; format: cell-based; settings: human preadipocytes; for inhibition of adipogenesis / differentiation: 10 μM
Description: FIG. 6. Oil-red staining of human preadipocytes and adipocytes.
(§1) Human preadipocytes were initially cultured in MSCGM medium (BioWhitaker) at 37° C. and 5% CO2 for 7 to 12 days with 3-4 changes of media till complete confluence. Non-induced cells were kept in adipogenesis maintenance media containing 0.01 mg/ml of insulin, 0.05 units/ml of penicillin, 0.05 μg/ml of streptomycin, and 10% fetal bovine serum. To induce adipogenesis, complete confluent cells were cultured in adipogenesis induction medium containing 1 μM dexamethasone, 0.2 mM indomethacin, 0.01 mg/ml insulin, 0.5 mM 3-isobutyl-1-methyl-xanthine, 0.05 units/ml of penicillin, 0.05 μg/ml of streptomycin, and 10% fetal bovine serum in the presence and absence of protease inhibitors for 3 days followed by three days of culture in maintenance media. After three cycles of induction and maintenance, cells were cultured in maintenance media for additional 7 days with two changes of fresh media.
This hypothesis is further confirmed by oil-red staining of CLIK 148 or 195 treated preadipocytes (FIG. 6). In addition, inhibition of adiogenesis by these two inhibitors is dose dependent. Less than 50% of adipogenesis was blocked by 1 μM of such inhibitors. […] In contrast, 1 μM of CLIK 060, 1 or 10 μM of CA 074 had no effect on adipogenesis (data not shown). Therefore, these observations indicate that cathepsin L appears to play a more critical role than cathepsins S and K in adipogenesis by controlling insulin/IR complex turnover.

[1] = tested on: CCAAT/enhancer-binding protein-α (C/EBP-α); test: C/EBP-α levels in human preadipocytes, Western blot; format: cell-based; settings: human preadipocytes differentiated with inhibitor, FIG. 4
Description: FIG. 4. Inhibition of cathepsin L blocked the expression of CCAAT/enhancer-binding protein. Human preadipocytes were differentiated as in FIG. 2. A 10% gel was used to perform Western blot analysis using goat anti-human C/EBP-α polyclonal antibodies and the blot was detected using the corresponding HRP-conjugated secondary antibodies.
as §1
(§2) To evaluate the cell differentiation levels affected by aforementioned inhibitors, the levels of transcription factors CCAAT/enhancer-binding protein-α (C/EBP-α) as well as peroxisome proliferator-activated receptor-γ (PPAR-γ) from cells treated with and without inhibitors were measured. Both C/EBP-α and PPAR-γ are important adipocyte determination factors. Wu et al. (1999) Mol. Cell. 3:151-158; Tanaka et al. (1997) EMBO J. 16:7432-7443; and Tontonoz et al. (1994) Cell 79:1147-1156.

cathepsin K [2] = target: T1, cathepsin K (Mus musculus, UniProt P55097); test: Cysteine protease active site labeling in mouse peritoneal macrophages: cathepsin K; format: cell-based
T1 construct: endogenous in cells; host or cells: thioglycolate-elicited mouse peritoneal macrophages
T1 sequence (P55097 115-329): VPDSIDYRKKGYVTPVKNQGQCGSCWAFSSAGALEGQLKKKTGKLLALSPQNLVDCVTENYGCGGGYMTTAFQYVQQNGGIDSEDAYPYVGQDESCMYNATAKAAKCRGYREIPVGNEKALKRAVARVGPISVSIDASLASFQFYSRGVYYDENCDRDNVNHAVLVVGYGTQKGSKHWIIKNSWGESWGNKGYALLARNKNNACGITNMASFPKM
Description: (§3) FIG. 1. Cysteine protease inhibition profile by synthetic inhibitors in mouse peritoneal macrophages. [^125I]-Z-Tyr-Ala-CHN2-labeled mouse peritoneal macrophages were lysed and separated onto 12% SDS-PAGE to visualize labeled active cathepsins. Doses and inhibitors used were all indicated.
(§4) Mouse peritoneal macrophages were generated by injecting mice with thioglycolate as described in Shi et al. (2000) J. Exp. Med. 191:[…]. After 3-4 days of incubation, peritoneal microphages were washed out using Tris-EDTA buffers containing 6 mM EDTA (pH 8.0). Cells were then seeded onto 24-well plates in DMEM with 10% FBS till complete spread. After cells were attached to the plates, different doses of inhibitors were added. After 2-3 hours of incubation, cells were labeled with [^125I]-Z-Tyr-Ala-CHN2 overnight at 37° C. to detect intracellular active cysteine proteases. Cells were lysed into 1× reducing protein sample buffer and separated onto 12% SDS-PAGE.
(§5) First, the synthetic small molecule compounds were tested for their selectivity toward different forms of cathepsin. Mouse peritoneal macrophages were cultured in the presence of selective inhibitors and cysteine protease active site labeling probe [^125I]-Z-Tyr-Ala-CHN2 (Sukhova et al., supra). […] In contrast, other inhibitors used had no effect on cathepsin B activity. […] Therefore, these inhibitors can be utilized to test if the aforementioned cathepsins play roles in the breakdown of insulin receptor (IR) or IR turnover.

cathepsin B [3] = target: T2, cathepsin B (Mus musculus, UniProt P10605); test: Cysteine protease active site labeling in mouse peritoneal macrophages: cathepsin B; format: cell-based
T2 construct: endogenous in cells; host or cells: thioglycolate-elicited mouse peritoneal macrophages
T2 sequence (P10605 80-333 limits assumed): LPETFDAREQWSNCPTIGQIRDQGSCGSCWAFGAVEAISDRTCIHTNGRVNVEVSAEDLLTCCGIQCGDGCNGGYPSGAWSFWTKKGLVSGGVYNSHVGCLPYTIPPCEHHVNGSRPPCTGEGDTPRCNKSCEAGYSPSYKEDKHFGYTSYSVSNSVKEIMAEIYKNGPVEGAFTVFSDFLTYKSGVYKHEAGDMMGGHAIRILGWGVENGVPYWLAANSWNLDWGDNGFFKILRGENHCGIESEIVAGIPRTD
Description: as §3, §4, §5

cathepsin L [4] = target: T3, cathepsin L (Mus musculus, UniProt P06797); test: Cysteine protease active site labeling in mouse peritoneal macrophages: cathepsin L; format: cell-based; settings: mouse peritoneal macrophages
T3 construct: endogenous in cells; host or cells: thioglycolate-elicited mouse peritoneal macrophages
T3 sequence (P06797 114-334): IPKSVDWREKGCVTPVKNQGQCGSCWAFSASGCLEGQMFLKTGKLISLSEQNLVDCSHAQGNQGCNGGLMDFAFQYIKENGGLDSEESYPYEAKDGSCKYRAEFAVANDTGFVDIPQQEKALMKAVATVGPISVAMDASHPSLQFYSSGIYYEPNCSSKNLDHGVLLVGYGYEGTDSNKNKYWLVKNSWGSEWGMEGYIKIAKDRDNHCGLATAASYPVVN
Description: as §3, §4, §5

[5] = tested on: insulin like growth factor I receptor (IGF-IR); test: IGF-IR levels in human preadipocytes, Western blot; format: cell-based; settings: 10 μM
Description: FIG. 3. […] Cells were treated as in FIG. 2. Western blot analysis was performed using goat anti-human IGF-1R polyclonal antibodies.
as §1
(§6) After differentiation, cells were collected, and lysed into 1×RIPA buffer. Protein concentrations were determined using Bio-Rad Dc protein assay system according to the manufacturer (Bio-Rad, Hercules, Calif.). Equal amount of proteins were separated on 7% SDS-PAGE for detecting IR and IGF-1R, 12% SDS-PAGE for detecting cathepsins S, K, and L antigens. Both IR and IGF-1R primary polyclonal antibodies were raised from goat and all cathepsin antibodies were polyclonal antibodies raised from rabbit. The corresponding HRP-conjugated secondary antibodies were used for detections.
To test which cathepsin is involved in the IR turnover, human preadipocytes (BioWhittaker, Walkersville, Md.) were induced to become adipocytes in the presence and absence of inhibitors. Differentiated adipocytes expressed more IR than controls as previously reported. Pederson et al. (2000) Biochem. Biophys. Res. Commun. 276:162-168. Cathepsin B inhibitor (CA 074, 10 μM) and catepsin S inhibitor (CLIK 060, 2 μM) had no effect on either IR turnover or differentiation (FIGS. 2). […]

[6] = tested on: peroxisome proliferator-activated receptor-γ (PPAR-γ); test: PPAR-γ levels in human preadipocytes, Western blot; format: cell-based; settings: human preadipocytes differentiated with inhibitor, FIG. 5
Description: FIG. 5. Inhibition of cathepsin L blocked the expression of PPAR-γ. Human preadipocytes were used and Western blot analysis was performed as in FIG. 4 instead of using mouse anti-human PPAR-γ monoclonal antibodies as the primary antibodies.
as §1, §2

[7] = tested on: insulin receptor β subunit; test: Insulin receptor turnover in human preadipocytes, Western blot; format: cell-based; settings: 10 μM
Description: FIG. 2. […] Human preadipocytes were incubated with and without inhibitors indicated at different doses, lysed, separated onto 7% SDS-PAGE, and probed with goat anti-human insulin receptor β-subunit polyclonal antibodies. Both mature β subunit and its precursor were indicated.
as §1, §6
To test which cathepsin is involved in the IR turnover, human preadipocytes (BioWhittaker, Walkersville, Md.) were induced to become adipocytes in the presence and absence of inhibitors. Differentiated adipocytes expressed more IR than controls as previously reported. Pederson et al. (2000) Biochem. Biophys. Res. Commun. 276:162-168. Cathepsin B inhibitor (CA 074, 10 μM) and catepsin S inhibitor (CLIK 060, 2 μM) had no effect on either IR turnover or differentiation (FIGS. 2). […] The same is true when the blot was tested with insulin like growth factor I receptor (IGF-IR) antibodies (FIG. 3).

Cathepsin B [8] = target: Cathepsin B (Homo sapiens, UniProt P07858); settings: cited from earlier work
Papain = target: T4, Papain (Carica papaya, UniProt P00784); settings: cited from earlier work
T4 sequence (P00784 134-345): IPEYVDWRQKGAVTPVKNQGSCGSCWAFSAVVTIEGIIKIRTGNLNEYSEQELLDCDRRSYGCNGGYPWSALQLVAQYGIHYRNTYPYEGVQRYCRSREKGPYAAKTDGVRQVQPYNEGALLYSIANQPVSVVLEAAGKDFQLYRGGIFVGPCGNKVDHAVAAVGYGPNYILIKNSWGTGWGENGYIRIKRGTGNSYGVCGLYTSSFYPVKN

Cathepsin L [9] = target: Cathepsin L (Homo sapiens, UniProt P07711); settings: cited from earlier work
Cathepsin L, sequence (P07711 114-333, species assumed): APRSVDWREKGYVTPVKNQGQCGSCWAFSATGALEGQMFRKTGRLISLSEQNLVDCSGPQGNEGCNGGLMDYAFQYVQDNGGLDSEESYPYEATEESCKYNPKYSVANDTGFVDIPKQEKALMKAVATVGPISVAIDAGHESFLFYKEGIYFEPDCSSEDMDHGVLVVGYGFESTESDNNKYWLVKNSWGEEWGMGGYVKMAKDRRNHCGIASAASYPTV

Cathepsin K [10] = target: T5, Cathepsin K (Homo sapiens, UniProt P43235); settings: cited from earlier work
T5 sequence (P43235 115-329): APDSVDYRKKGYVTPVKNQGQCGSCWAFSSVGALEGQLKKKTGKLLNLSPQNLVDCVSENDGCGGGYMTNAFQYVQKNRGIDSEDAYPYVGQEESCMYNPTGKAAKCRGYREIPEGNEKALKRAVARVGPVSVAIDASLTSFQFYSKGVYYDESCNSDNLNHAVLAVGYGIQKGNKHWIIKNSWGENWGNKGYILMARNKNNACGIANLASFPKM

Cathepsin C = Cathepsin C (Homo sapiens, UniProt P53634); settings: at 1 × 10^−6 M; cited from earlier work
Cathepsin C, sequence (P53634 25-463, species assumed): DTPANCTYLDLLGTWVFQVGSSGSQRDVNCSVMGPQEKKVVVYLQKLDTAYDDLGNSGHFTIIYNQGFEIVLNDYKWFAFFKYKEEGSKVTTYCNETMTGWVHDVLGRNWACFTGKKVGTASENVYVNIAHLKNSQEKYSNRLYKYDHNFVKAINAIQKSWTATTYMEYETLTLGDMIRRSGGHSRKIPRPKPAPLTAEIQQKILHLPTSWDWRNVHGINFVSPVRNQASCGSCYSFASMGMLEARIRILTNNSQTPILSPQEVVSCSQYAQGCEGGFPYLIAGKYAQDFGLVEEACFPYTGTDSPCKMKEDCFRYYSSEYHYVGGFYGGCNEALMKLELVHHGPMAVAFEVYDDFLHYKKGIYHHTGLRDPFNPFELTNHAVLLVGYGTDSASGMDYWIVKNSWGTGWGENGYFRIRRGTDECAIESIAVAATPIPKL

Cathepsin S [11] = target: Cathepsin S (Homo sapiens, UniProt P25774); settings: at 1 × 10^−6 M; cited from earlier work
Cathepsin S, sequence (P25774 115-331, species assumed): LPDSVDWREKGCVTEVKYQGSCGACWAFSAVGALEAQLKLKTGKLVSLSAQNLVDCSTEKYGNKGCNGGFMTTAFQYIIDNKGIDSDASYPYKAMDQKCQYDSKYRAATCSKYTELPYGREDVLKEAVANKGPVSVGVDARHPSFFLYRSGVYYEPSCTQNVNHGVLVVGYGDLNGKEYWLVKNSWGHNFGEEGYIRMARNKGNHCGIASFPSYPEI

cathepsin S [12] = target: cathepsin S (Mus musculus, UniProt O70370); test: Cysteine protease active site labeling in mouse peritoneal macrophages: cathepsin S; format: cell-based; parameters: endogenous in cells; host or cells: thioglycolate-elicited mouse peritoneal macrophages; settings: 2 μM
Description: as §3, §4
First, the synthetic small molecule compounds were tested for their selectivity toward different forms of cathepsin. Mouse peritoneal macrophages were cultured in the presence of selective inhibitors and cysteine protease active site labeling probe [^125I]-Z-Tyr-Ala-CHN2 (Sukhova et al., supra). […] In contrast, other inhibitors used had no effect on cathepsin B activity. […]

CN(C)C(=O)[C@H](Cc1ccccc1)NC(=O)[C@H]1O[C@@H]1C(=O)N[C@@H](Cc1ccccc1)C(=O)N(C)C (relative stereo) [CLIK 195, L-(+)-(2S, 3S)-Bis-(Na-amino-L-phenylalaninedimethylamide)-trans-epoxysuccinamide]
inhibition of adipogenesis / differentiation (human preadipocytes): complete inhibition
inhibition of adipogenesis / differentiation (human preadipocytes; listed as 195): completely blocked
accumulation of 50 kDa C/EBP-α [1]: blocking the accumulation
cathepsin K activity (active site labeling) (cathepsin K [2]; 10 μM): not
cathepsin B activity (active site labeling) (cathepsin B [3]; 10 μM): not
cathepsin L activity (active site labeling) (cathepsin L [4]; 10 μM): completely inhibited
levels of IGF-IR β subunit and its precursor (the same as for IR) [5]: increased levels
accumulation of 50 kDa PPAR-γ [6]: blocking the accumulation
levels of 95 kDa IR β subunit and its precursor ([7]; human preadipocytes): increased levels

O=C(CNC(=O)[C@H](Cc1ccccc1)NC(=O)OCc1ccccc1)NOC(=O)c1ccccc1
Ki (Cathepsin B [8]): 0.8 to 0.9 nM
Ki (Papain): 2 to 5 nM
Ki (Cathepsin L [9]): 0.04 to 0.08 nM
Ki (Cathepsin K [10]): 12 to 16 nM

CN(C)C(=O)[C@H](Cc1ccccc1)NC(=O)C1O[C@@H]1C(=O)N[C@@H](Cc1ccccc1)C(=O)N(C)C (some centres unmarked)
% of Inhibition, Cathepsin B (Cathepsin B [8]; at 1 × 10^−6 M): 0%
% of Inhibition, Cathepsin L (Cathepsin L [9]; at 1 × 10^−6 M): 100%
% of Inhibition, Cathepsin C (Cathepsin C): 0%
% of Inhibition, Cathepsin K (Cathepsin K [10]; at 1 × 10^−6 M): 0%
% of Inhibition, Cathepsin S (Cathepsin S [11]): 25%

CCCNC(=O)[C@H]1O[C@@H]1C(=O)N[C@H](C(=O)N1CCC[C@H]1C(=O)O)[C@@H](C)CC [CA 074]
effect on adipogenesis (human preadipocytes; 1 μM): no effect
inhibition of adipogenesis / differentiation (human preadipocytes): no effect
effect on adipogenesis (human preadipocytes; 10-20 μM): no effect
cathepsin K activity (active site labeling) (cathepsin K [2]; 2 μM): remain intact
cathepsin S activity (active site labeling) (cathepsin S [12]): remain intact
cathepsin B activity (active site labeling) (cathepsin B [3]; 2 μM): completely blocked
cathepsin L activity (active site labeling) (cathepsin L [4]; 2 μM): remain intact
IR turnover ([7]; human preadipocytes induced to adipocytes): no effect
